Measurements as given in patent publication US20250320204A1 (RIBOSCIENCE LLC, priority 2023, published 2025).

The compounds below were run against T1, ENPP1 (Homo sapiens, UniProt P22413) (assay: Measurement of pNP-TMP hydrolysis by ENPP1). Conditions: pNP-TMP substrate 500 μM, Km 232 μM; Ki from IC50 by Cheng-Prusoff.
T1 sequence (P22413 1-925): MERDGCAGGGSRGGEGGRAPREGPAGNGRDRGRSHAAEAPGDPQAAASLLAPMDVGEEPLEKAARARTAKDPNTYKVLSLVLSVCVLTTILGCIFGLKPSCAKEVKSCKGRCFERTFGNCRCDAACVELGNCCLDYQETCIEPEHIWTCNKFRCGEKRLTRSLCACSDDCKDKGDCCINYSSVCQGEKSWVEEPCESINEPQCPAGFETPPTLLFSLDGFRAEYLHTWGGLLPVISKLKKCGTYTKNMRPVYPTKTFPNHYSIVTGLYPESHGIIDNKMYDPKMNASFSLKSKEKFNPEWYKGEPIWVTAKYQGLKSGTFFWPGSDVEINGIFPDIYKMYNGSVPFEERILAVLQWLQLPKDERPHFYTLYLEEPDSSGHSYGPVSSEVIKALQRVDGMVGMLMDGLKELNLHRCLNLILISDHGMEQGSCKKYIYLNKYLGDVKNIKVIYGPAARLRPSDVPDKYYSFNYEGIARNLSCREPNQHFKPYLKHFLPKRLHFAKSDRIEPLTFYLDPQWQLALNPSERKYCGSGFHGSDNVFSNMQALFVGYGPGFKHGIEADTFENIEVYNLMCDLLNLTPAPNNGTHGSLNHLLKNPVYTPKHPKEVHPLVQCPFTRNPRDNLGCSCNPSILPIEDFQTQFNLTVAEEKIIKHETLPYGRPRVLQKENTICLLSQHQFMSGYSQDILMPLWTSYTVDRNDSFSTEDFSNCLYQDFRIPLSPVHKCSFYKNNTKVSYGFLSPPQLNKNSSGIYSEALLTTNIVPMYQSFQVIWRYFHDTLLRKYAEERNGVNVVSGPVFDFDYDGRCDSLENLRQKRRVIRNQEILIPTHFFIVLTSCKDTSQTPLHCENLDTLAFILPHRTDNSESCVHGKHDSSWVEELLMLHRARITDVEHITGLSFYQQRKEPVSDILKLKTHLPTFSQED
Type: biochemical
Protocol: Measurement of pNP-TMP hydrolysis by ENPP1
p-Nitrophenyl thymidine 5′-monophosphate (pNP-TMP) is a synthesized substrate for ENPP1. The ENPP1 enzyme activity assay with pNP-TMP substrate was conducted as follows:
First, in a 60 μl reaction, 7.5 ng purified ENPP1 was mixed with 1.2 μl compounds of Formula (I) (test compound) ranging from 13.7 nM to 10 μM. Incubation of ENPP1 with compounds was set at 25° C. for 10 min. Reactions with DMSO only (with ENPP1 but no compound) gave the fastest reaction (MAX Activity). For each compound dilution, wells with assay buffer (50 mM Tris -HCl, pH8.8, 250 mM NaCl, 0.1 mg/ml BSA) and test compounds but no ENPP1 were included as controls for the subtraction of test compound derived absorbance at 405 nm.
Second, after 10 minutes incubation of ENPP1 and test compound, the assay was initiated by transferring 50 μl of the above mentioned ENPP1/test compound reaction into 50 μl of 1 mM pNP-TMP in assay buffer results in a 100 μl total reaction in non-binding surface clear bottom 96 well plates. Absorbance at 405 nm was recorded immediately in kinetic mode by PerkinElmer 2300 Enspire multimode plate reader.
For each inhibitor, the specific ENPP1 activity was calculated using the following equation: ENPP1 activity (pmol/min/μg)=Adjusted Vmax (OD405 nm/min) X conversion factor (pmol/OD405 nm)/amount of enzyme (μg)
Adjusted Vmax=V0X (Km+(S))/(S). In this assay, Km=232 μM, (S)=500 μM. Adjusted Vmax=1.464 X V0.
V0=(OD405 nm with ENPP1-OD405 nm ENPP1 blank)/minutes. OD405 nm was plotted, with blank subtracted, against time (minutes), the initial linear rate is V0.
The conversion factor (pmol/OD405 nm), was determined by plotting the amount of standard, 4-Nitrophenol (Sigma -Aldrich, Catalog #241326), against absorbance at 405 nm. The slope is the conversion factor. The percent ENPP1 activity for each sample was calculated using the following equation: […]
To determine the IC50 for each compound, compound concentration values and percent enzyme activity values were inserted into GraphPad Prism (GraphPad Prism version 9.0 for Windows, GraphPad Software, La Jolla California USA, www.graphpad.com), and Prism's Transform analysis was used to convert the x-axis values (compound concentration) to logarithms. A sigmoidal variable slope nonlinear regression analysis was performed using the following equation: Y=Bottom+ (Top-Bottom)/(1+10^((Log IC50″X) *HillSlope)).
Ki values for each compound were calculated from the observed IC50 from GraphPad analysis using the Cheng-Prusoff equation: Ki=IC50/(1+(S)/KM). (S) here is 500 μM and KM is determined to be 232 μM.

Ki, 0.1 to 10 µM:
COc1nccc2c(Oc3cccc(S(C)(=N)=O)c3)ccnc12 (stereo not shown) [Example 51, imino (3-((8-methoxy-1,7-naphthyridin-4-yl)oxy)phenyl)(methyl)-lambda6-sulfanone]
CN=S(C)(=O)N1CCC2(CCN(c3ccnc4c(OC)nccc34)C2)CC1 (stereo not shown) [Example 53, ((2-(8-methoxy-1,7-naphthyridin-4-yl)-2,8-diazaspiro(4.5)decan-8-yl)(methyl)oxo-lambda6-sulfanylidene)(methyl)amine]
CN=S(C)(=O)N1CCC2(CCN(c3ccnc4c(OC)nccc34)C2)C1 (stereo not shown) [Example 54, ((7-(8-methoxy-1,7-naphthyridin-4-yl)-2,7-diazaspiro(4.4)nonan-2-yl)(methyl)oxo-lambda6-sulfanylidene)(methyl)amine]
CN=S(=O)(c1cccc(COc2ccnc3c(OC)nccc23)c1)C1CC1 (stereo not shown) [Example 55, cyclopropyl(3-(((8-methoxy-1,7-naphthyridin-4-yl)oxy)methyl)phenyl)(methylimino)-lambda6-sulfanone]
CN=S(=O)(c1cccc(COc2ncnc3c(OC)nccc23)c1)C1CC1 (stereo not shown) [Example 56, cyclopropyl(3-(((8-methoxypyrido[3,4-d]pyrimidin-4-yl)oxy)methyl)phenyl)-(methylimino)-lambda6-sulfanone]
CN=S(C)(=O)CC1CC2(C1)CN(c1ccnc3c(OC)nccc13)C2 (stereo not shown) [Example 58, ((2-(8-methoxy-1,7-naphthyridin-4-yl)-2-azaspiro(3.3)heptan-6-yl)methyl-methyl)(methylimino)-lambda6-sulfanone]
N=S(=O)(c1cccc(COc2ccnc3c(OC4CC4)nccc23)c1)C1CC1 (stereo not shown) [Example 60, (3-(((8-cyclopropoxy-1,7-naphthyridin-4-yl)oxy)methyl)phenyl)-(cyclopropyl) (imino)-lambda6-sulfanone]
CC(C)Oc1nccc2c(OCc3cccc(S(=N)(=O)C4CC4)c3)ccnc12 (stereo not shown) [Example 61, cyclopropyl(imino) (3-(((8-isopropoxy-1,7-naphthyridin-4-yl)oxy)methyl)phenyl)-lambda6-sulfanone]
CCCOc1nccc2c(OCc3cccc(S(=N)(=O)C4CC4)c3)ccnc12 (stereo not shown) [Example 62, cyclopropyl(imino) (3-(((8-propoxy-1,7-naphthyridin-4-yl)oxy)methyl)phenyl)-lambda6-sulfanone]

Ki, < 0.01 µM:
COc1nccc2c(OCc3cc(F)cc([S@](=N)(=O)C4CC4)c3)ccnc12 (single isomer, unassigned) [Example 68]
CS(=N)(=O)CC1CC2(C1)CN(c1ccnc3cnccc13)C2 (stereo not shown) [Example 1, imino(methyl) [[2-(1,7-naphthyridin-4-yl)-2-azaspiro[3.3]heptan-6-yl]methyl]-lambda6-sulfanone]
COc1nccc2c(N3CC(CCCS(C)(=N)=O)C3)ccnc12 (stereo not shown) [Example 3, imino (3-(1-(8-methoxy-1,7-naphthyridin-4-yl)azetidin-3-yl)propyl)(methyl)-lambda6-sulfanone]
COc1nccc2c(N3CCC(O)(CS(=N)(=O)C4CC4)CC3)ccnc12 (stereo not shown) [Example 4, cyclopropyl((4-hydroxy-1-(8-methoxy-1,7-naphthyridin-4-yl)piperidin-4-yl)-methyl) (imino)-lambda6-sulfanone]
COc1nccc2c(N3CCC4(C3)CN(S(C)(=N)=O)C4)ccnc12 (stereo not shown) [Example 44, 8-methoxy-4-(2-(S-methylsulfonimidoyl)-2,6-diazaspiro(3.4)octan-6-yl)-1,7-naphthyridine]
COc1nccc2c(N3CC4(CCN(S(C)(=N)=O)C4)C3)ccnc12 (stereo not shown) [Example 45, 8-methoxy-4-(6-(S-methylsulfonimidoyl)-2,6-diazaspiro(3.4)octan-2-yl)-1,7-naphthyridine]
CCOc1nccc2c(N3CCC(O)(CS(C)(=N)=O)CC3)ccnc12 (stereo not shown) [Example 46, ((1-(8-ethoxy-1,7-naphthyridin-4-yl)-4-hydroxypiperidin-4-yl)methyl) (imino)-(methyl)-lambda6-sulfanone]
COc1nccc2c(Oc3ccc(S(C)(=N)=O)cc3)ccnc12 (stereo not shown) [Example 50, imino (4-((8-methoxy-1,7-naphthyridin-4-yl)oxy)phenyl)(methyl)-lambda6-sulfanone]
CN=S(C)(=O)CC1(O)CCN(c2ccnc3c(OC)nccc23)CC1 (stereo not shown) [Example 57, ((4-hydroxy-1-(8-methoxy-1,7-naphthyridin-4-yl)piperidin-4-yl)methyl)(methyl)-(methylimino)-lambda6-sulfanone]
COc1nccc2c(OCc3cc(S(=N)(=O)C4CC4)ccc3F)ccnc12 (stereo not shown) [Example 59, cyclopropyl(4-fluoro-3-(((8-methoxy-1,7-naphthyridin-4-yl)oxy)methyl)-phenyl) (imino)-lambda6-sulfanone]
CS(=N)(=O)CCC1CCN(c2ccnc3c(OCF)nccc23)CC1 (stereo not shown) [Example 65, (2-(1-(8-(fluoromethoxy)-1,7-naphthyridin-4-yl)piperidin-4-yl)ethyl)-(imino)(methyl)-lambda6-sulfanone]

Ki, 0.01 to 0.1 µM:
CS(=N)(=O)CC1CC2(C1)CN(c1ncnc3c(O)nccc13)C2 (single isomer, unassigned) [Example 2b, ((2-(8-hydroxypyrido[3,4-d]pyrimidin-4-yl)-2-azaspiro[3.3]heptan-6-yl)methyl) (imino)(methyl)-lambda6-sulfanone]
N=[S@](=O)(c1cccc(COc2ccnc3c(OCF)nccc23)c1)C1CC1 (single isomer, unassigned) [Example 42]
COc1nccc2c(OCc3cc(F)cc([S@](C)(=N)=O)c3)ccnc12 (single isomer, unassigned) [Example 70]
C[S@@](=N)(=O)c1cccc(COc2ccnc3c(OCF)nccc23)c1 (single isomer, unassigned) [Example 78]
CS(=N)(=O)c1ccc(COc2ccnc3cnccc23)cc1 (stereo not shown) [Example 7]
COc1nccc2c(OCc3cccc([S@](=N)(=O)C4CC4)c3)ccnc12 [Example 17a, (R)-Cyclopropyl(imino)(3-(((8-methoxy-1,7-naphthyridin-4-yl)oxy)methyl)phenyl)-lambda6-sulfanone]
CS(=N)(=O)CC1(O)CCN(c2ccnc3c(OC4CC4)nccc23)CC1 (stereo not shown) [Example 52, ((1-(8-cyclopropoxy-1,7-naphthyridin-4-yl)-4-hydroxypiperidin-4-yl)methyl) (imino)(methyl)-lambda6-sulfanone]
CS(=N)(=O)CCC1(O)CCN(c2ccnc3c(OCF)nccc23)CC1 (stereo not shown) [Example 63, (2-(1-(8-(fluoromethoxy)-1,7-naphthyridin-4-yl)-4-hydroxypiperidin-4-yl)ethyl)-(imino)(methyl)-lambda6-sulfanone]
